Calls of active or inactive are those of the source. No cut-off for these calls is given here.
What was measured:
SW-620 = assay: Reversal of paclitaxel resistance in human SW620 cells assessed as reversal fold by measuring ratio of paclitaxel IC50 to paclitaxel IC50 in presence of test compound at 4 uM incubated for 72 hrs by MTT assay; format: functional
KB-C2 [1] = assay: Cytotoxicity against human KB-C2 cells assessed as survival rate at 2 uM measured after 72 hrs by MTT assay relative to control; format: functional; settings: read-out: Survival
KB-C2 [2] = assay: Cytotoxicity against human KB-C2 cells assessed as survival rate at 5 uM measured after 72 hrs by MTT assay relative to control; format: functional; settings: read-out: Survival
KB 3-1 = assay: Reversal of paclitaxel resistance in human KB 3-1 cells assessed as reversal fold by measuring ratio of paclitaxel IC50 to paclitaxel IC50 in presence of test compound at 2 uM incubated for 72 hrs by MTT assay; format: functional
[3] = Reversal of paclitaxel resistance in HEK293 cells transfected with pcDNA3.1 assessed as reversal fold by measuring ratio of paclitaxel IC50 to paclitaxel IC50 in presence of test compound at 2 uM incubated for 72 hrs by MTT assay; format: functional, Homo sapiens
[4] = Reversal of paclitaxel resistance in HEK293 cells transfected with pcDNA3.1 assessed as reversal fold by measuring ratio of paclitaxel IC50 to paclitaxel IC50 in presence of test compound at 4 uM incubated for 72 hrs by MTT assay; format: functional, Homo sapiens
HEK293 = assay: Cytotoxicity against HEK293 cells harbouring ABCB1 assessed as survival rate at 2 uM measured after 72 hrs by MTT assay relative to control; format: functional; settings: Homo sapiens, read-out: Survival
[5] = Tmax in 12 hrs fasted Sprague-Dawley rat at 1 mg/kg, iv measured upto 720 mins by HPLC-MS/MS analysis; format: ADME, organism-based; settings: in vivo
[6] = AUC (0 to t) in 12 hrs fasted Sprague-Dawley rat at 10 mg/kg, po measured upto 720 mins by HPLC-MS/MS analysis; format: ADME, organism-based; settings: in vivo
[7] = MRT (0 to t) in 12 hrs fasted Sprague-Dawley rat at 10 mg/kg, po measured upto 720 mins by HPLC-MS/MS analysis; format: ADME, organism-based; settings: in vivo
[8] = target: Voltage-gated inwardly rectifying potassium channel KCNH2 (Homo sapiens, UniProt Q12809); assay: Inhibition of human ERG expressed in CHO cells by QPatch assay; format: toxicity, cell-based
Sequence of Voltage-gated inwardly rectifying potassium channel KCNH2 (Q12809 whole entry): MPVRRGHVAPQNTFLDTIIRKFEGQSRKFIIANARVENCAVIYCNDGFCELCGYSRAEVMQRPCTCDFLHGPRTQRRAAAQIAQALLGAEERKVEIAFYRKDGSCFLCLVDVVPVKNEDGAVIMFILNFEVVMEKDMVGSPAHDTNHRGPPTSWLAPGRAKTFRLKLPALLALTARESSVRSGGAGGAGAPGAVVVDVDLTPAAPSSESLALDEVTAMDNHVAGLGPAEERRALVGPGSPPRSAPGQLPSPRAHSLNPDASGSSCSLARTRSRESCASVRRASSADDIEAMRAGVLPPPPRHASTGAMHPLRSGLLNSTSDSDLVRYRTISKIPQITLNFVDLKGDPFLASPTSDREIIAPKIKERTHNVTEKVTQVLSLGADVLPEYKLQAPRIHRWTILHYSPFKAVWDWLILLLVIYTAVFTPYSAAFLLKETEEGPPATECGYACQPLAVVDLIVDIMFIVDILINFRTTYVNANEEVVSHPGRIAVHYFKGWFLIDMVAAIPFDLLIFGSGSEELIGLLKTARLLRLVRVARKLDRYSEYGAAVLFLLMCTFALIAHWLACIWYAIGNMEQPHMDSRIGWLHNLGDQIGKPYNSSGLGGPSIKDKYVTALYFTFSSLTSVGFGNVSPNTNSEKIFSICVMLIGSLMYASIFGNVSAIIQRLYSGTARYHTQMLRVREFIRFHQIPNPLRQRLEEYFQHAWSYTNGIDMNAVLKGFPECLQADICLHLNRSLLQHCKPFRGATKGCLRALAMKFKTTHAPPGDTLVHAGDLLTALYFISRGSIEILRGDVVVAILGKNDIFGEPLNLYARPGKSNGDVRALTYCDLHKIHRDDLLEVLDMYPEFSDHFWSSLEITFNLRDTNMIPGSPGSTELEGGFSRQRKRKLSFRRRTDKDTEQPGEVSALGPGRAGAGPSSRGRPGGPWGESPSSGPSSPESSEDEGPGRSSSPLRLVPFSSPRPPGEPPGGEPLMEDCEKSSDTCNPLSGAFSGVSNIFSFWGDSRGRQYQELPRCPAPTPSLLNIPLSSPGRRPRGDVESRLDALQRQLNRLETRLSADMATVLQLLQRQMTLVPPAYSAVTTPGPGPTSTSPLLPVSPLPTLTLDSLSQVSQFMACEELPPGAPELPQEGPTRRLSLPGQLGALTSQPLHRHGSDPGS

[9] = target: Multidrug resistance-associated protein 1 (Homo sapiens, UniProt P33527); assay: Induction of thermal stabilization of ABCC1 in human SW620/AD300 cells at 200 uM measured after 30 mins by thermal shift assay; format: cell-based; settings: sw620/ad300, 0.5 h
Sequence of Multidrug resistance-associated protein 1 (P33527 whole entry): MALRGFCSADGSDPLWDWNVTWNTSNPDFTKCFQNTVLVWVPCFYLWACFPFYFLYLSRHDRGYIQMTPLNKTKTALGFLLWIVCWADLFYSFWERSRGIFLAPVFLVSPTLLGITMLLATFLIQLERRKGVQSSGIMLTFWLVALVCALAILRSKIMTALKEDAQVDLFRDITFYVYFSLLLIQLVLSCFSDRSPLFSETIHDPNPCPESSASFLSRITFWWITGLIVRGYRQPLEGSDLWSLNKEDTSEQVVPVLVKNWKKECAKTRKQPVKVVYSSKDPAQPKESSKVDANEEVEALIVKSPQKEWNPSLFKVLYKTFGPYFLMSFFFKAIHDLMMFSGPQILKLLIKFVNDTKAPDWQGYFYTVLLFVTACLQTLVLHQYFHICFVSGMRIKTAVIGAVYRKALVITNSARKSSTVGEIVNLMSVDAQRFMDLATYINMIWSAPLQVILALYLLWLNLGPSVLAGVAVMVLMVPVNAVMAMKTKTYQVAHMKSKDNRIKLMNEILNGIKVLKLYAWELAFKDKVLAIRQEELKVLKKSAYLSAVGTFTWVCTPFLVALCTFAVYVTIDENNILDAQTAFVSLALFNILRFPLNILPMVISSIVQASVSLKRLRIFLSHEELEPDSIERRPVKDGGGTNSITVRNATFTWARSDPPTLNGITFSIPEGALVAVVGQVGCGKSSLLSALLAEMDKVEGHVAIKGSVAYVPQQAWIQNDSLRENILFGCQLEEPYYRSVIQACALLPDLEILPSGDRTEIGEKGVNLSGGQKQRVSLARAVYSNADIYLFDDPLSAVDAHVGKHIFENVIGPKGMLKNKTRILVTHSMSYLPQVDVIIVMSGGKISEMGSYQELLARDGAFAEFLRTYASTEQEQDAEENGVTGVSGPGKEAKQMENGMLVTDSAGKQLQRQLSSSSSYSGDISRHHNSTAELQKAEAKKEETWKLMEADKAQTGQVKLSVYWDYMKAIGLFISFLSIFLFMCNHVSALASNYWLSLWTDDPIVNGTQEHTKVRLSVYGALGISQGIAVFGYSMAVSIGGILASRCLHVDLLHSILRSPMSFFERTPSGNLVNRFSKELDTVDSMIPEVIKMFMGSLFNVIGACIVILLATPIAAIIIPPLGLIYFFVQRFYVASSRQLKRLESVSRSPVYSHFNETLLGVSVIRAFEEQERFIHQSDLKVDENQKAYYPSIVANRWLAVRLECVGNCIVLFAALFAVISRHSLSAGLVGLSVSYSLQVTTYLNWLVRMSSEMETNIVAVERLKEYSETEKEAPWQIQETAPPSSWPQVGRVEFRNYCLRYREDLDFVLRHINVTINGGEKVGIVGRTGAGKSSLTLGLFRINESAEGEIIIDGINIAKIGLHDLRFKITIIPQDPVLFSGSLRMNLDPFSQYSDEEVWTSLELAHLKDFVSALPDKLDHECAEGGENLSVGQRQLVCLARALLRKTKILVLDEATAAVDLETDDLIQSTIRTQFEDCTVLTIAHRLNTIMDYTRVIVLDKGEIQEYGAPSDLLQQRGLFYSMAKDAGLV

[10] = Toxicity in Sprague-Dawley rat assessed as fatality at 250 to 1000 mg/kg, po measured for 14 days administered as single dose; format: organism-based; settings: in vivo, 336 h, dose 250-1000 mg/kg, time 14 day
[11] = Toxicity in Sprague-Dawley rat assessed as maximum tolerated dose measured for 14 days administered as single oral dose; settings: in vivo, time 14 day
SW620/AD300 = assay: Antitumor activity against human SW620/AD300 cells xenografted in male BALB/c nude mouse model assessed as reduction in tumor volume at 100 mg/kg/day, IG measured after 21 days in presence of paclitaxel; format: functional, organism-based; settings: time 21.0 day
CD8-positive T cell [12] = assay: Activation of immune response in human CD8-positive T cell assessed as increase in IFN-gamma level at 4 uM by ELISA method; format: functional, cell-based
CD8-positive T cell [13] = assay: Activation of immune response in human CD8-positive T cell assessed as increase in TNF-alpha level at 4 uM by ELISA method; format: functional, cell-based
CD8-positive T cell [14] = assay: Activation of immune response in human CD8-positive T cell assessed as increase in granzyme level at 4 uM by ELISA method; format: functional, cell-based
CT26/TAXOL [15] = assay: Antitumor T-cell immune response in […] cells xenografted in BALB/c nude mouse model at 100 mg/kg/day, IG in presence of anti-PD-1/paclitaxel measured after 14 days; format: functional, organism-based; settings: time 14.0 day
CT26/TAXOL [16] = assay: Antitumor T-cell immune response in […] cells xenografted in BALB/c nude mouse model assessed as reduction in tumor volume at 100 mg/kg/day, IG in presence of anti-PD-1/paclitaxel measured after 14 days; format: functional, organism-based; settings: time 14.0 day
CT26/TAXOL [17] = assay: Antitumor T-cell immune response in […] cells xenografted in BALB/c nude mouse model assessed as increase in CD8+ T-cell infiltration at 100 mg/kg/day, IG in presence of anti-PD-1/paclitaxel measured after 14 days by immunofluorescence staining based analysis; format: functional, organism-based; settings: time 14.0 day
[18] = Toxicity in BALB/c nude mouse xenografted with […] CT26/TAXOL cells assessed as effect on liver at 100 mg/kg/day, IG measured after 14 days by H and E staining based analysis; format: organism-based; settings: in vivo, po, 336 h, time 14 day
[19] = Toxicity in BALB/c nude mouse xenografted with […] CT26/TAXOL cells assessed as effect on spleen at 100 mg/kg/day, IG measured after 14 days by H and E staining based analysis; format: organism-based; settings: in vivo, po, 336 h, time 14 day
[20] = Toxicity in BALB/c nude mouse xenografted with […] CT26/TAXOL cells assessed as effect on brain at 100 mg/kg/day, IG measured after 14 days by H and E staining based analysis; format: organism-based; settings: in vivo, po, 336 h, time 14 day
[21] = Toxicity in BALB/c nude mouse xenografted with […] CT26/TAXOL cells assessed as effect on spleen at 100 mg/kg/day, IG in presence of paclitaxel measured after 14 days by H and E staining based analysis; format: organism-based; settings: in vivo, po, 336 h, time 14 day
[22] = Toxicity in BALB/c nude mouse xenografted with […] CT26/TAXOL cells assessed as effect on brain at 100 mg/kg/day, IG in presence of paclitaxel measured after 14 days by H and E staining based analysis; format: organism-based; settings: in vivo, po, 336 h, time 14 day
[23] = Toxicity in BALB/c nude mouse xenografted with […] CT26/TAXOL cells assessed as effect on liver at 100 mg/kg/day, IG in presence of paclitaxel/anti-PD-1 measured after 14 days by H and E staining based analysis; format: organism-based; settings: in vivo, po, 336 h, time 14 day
[24] = Toxicity in BALB/c nude mouse xenografted with […] CT26/TAXOL cells assessed as effect on lung at 100 mg/kg/day, IG in presence of paclitaxel/anti-PD-1 measured after 14 days by H and E staining based analysis; format: organism-based; settings: in vivo, po, 336 h, time 14 day
[25] = Toxicity in BALB/c nude mouse xenografted with […] CT26/TAXOL cells assessed as effect on kidney at 100 mg/kg/day, IG in presence of paclitaxel/anti-PD-1 measured after 14 days by H and E staining based analysis; format: organism-based; settings: in vivo, po, 336 h, time 14 day
[26] = target: ATP-dependent translocase ABCB1 (Homo sapiens, UniProt P08183); assay: Inhibition of ABCB1 in human SW620/AD300 cells assessed as decrease in [3H]-PTX efflux at 4 uM measured after 120 mins (Rvb <95%); format: cell-based; settings: 2 h
Sequence of ATP-dependent translocase ABCB1 (P08183 whole entry): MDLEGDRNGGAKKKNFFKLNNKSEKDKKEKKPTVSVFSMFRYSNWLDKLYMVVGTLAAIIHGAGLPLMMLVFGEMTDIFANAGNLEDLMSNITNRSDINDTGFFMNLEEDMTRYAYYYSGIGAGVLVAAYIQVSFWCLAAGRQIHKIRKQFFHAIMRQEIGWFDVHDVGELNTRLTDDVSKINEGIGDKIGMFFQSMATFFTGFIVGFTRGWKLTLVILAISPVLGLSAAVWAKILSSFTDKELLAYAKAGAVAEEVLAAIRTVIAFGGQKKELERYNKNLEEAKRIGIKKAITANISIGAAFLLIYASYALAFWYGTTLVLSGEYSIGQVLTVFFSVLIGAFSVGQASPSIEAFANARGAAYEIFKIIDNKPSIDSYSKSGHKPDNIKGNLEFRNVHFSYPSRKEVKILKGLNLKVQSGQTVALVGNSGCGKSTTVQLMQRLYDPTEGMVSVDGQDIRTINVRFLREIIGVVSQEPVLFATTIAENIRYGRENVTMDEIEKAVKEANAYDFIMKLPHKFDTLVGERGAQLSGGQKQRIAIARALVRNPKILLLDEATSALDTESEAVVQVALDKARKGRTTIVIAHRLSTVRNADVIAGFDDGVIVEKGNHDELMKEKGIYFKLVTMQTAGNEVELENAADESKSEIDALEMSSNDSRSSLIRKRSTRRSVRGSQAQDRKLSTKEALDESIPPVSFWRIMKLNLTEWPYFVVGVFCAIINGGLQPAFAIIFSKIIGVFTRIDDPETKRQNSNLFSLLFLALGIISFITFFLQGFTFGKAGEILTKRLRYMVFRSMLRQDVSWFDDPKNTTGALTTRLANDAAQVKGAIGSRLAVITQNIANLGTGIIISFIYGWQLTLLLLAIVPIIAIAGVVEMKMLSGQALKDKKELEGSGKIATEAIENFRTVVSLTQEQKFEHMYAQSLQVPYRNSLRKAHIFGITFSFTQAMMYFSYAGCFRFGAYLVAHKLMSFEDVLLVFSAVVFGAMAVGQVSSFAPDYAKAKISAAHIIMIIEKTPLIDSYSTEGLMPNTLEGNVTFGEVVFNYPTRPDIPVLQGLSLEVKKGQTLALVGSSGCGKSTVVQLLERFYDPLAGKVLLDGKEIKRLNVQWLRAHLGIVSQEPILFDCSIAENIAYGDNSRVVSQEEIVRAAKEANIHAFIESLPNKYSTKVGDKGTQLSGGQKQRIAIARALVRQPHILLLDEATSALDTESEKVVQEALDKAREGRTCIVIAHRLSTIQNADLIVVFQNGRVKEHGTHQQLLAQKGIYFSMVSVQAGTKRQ

Cytochrome P450 3A4 = Cytochrome P450 3A4 (Homo sapiens, UniProt P08684); assay: Activation of recombinant CYP3A4 in human liver microsomes at 4 uM measured after 30 mins in presence of NADPH generating system by fluorescence based analysis; format: ADME, Microsome; settings: 0.5 h
Sequence of Cytochrome P450 3A4 (P08684 whole entry): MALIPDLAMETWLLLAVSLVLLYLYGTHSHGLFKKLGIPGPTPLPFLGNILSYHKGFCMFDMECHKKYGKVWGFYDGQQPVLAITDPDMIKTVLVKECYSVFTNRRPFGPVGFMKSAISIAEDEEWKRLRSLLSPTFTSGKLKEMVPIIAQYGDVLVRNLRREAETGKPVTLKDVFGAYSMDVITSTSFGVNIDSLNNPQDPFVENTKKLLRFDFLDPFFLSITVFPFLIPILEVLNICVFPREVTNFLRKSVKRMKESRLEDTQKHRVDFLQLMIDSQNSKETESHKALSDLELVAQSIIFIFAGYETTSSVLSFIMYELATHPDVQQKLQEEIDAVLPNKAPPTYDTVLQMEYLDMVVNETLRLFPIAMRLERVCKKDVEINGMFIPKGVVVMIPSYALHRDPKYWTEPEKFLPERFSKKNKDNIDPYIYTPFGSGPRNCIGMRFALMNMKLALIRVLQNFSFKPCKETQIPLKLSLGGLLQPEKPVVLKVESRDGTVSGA

O=c1c2c([nH]c3nc(SCc4nc5ccccc5s4)nn13)CCC2
Ratio IC50 (SW-620): 1.06 | viability at 2 µM (KB-C2 [1]): 96.2% | viability at 5 µM (KB-C2 [2]): 94.4% | Ratio IC50 (KB 3-1): 1.05 | Ratio IC50 [3]: 10.9 | Ratio IC50 [4]: 1.16 | viability at 2 µM (HEK293): 98.2% | Tmax [5]: 4.98 min | AUC(0-t) at 12 h [6]: 5740 ng·h/mL | MRT last at 12 h [7]: 6.87 h | IC50 [8]: > 50 µM | Activity [9]: Not_active | Activity [10]: Non-toxic | MTD at 336 h [11]: 1000 mg/kg | Activity (SW620/AD300): Active | Activity (CD8-positive T cell [12]): Active | Activity (CD8-positive T cell [13]): Active | Activity (CD8-positive T cell [14]): Active | Activity (CT26/TAXOL [15]): Active | Activity (CT26/TAXOL [16]): Active | Activity (CT26/TAXOL [17]): Active | Activity [18]: Non-toxic | Activity [19]: Non-toxic | Activity [20]: Non-toxic | Activity [21]: Non-toxic | Activity [22]: Non-toxic | Activity [23]: Non-toxic | Activity [24]: Non-toxic | Activity [25]: Non-toxic | inhibition at 4 µM [26]: 71% | Activity (Cytochrome P450 3A4): Active
